This test in a line: Sensory comparison of flavored products with the flavor not according to the invention. It counts as in vivo.

Each structure is given as a SMILES string.

With `CCC1OC(C)(CC)CCC1C(C)C` (stereo not shown) [2,6-diethyl-5-isopropyl-2-methyl-tetrahydropyran], the feeling of freshness entry by setting is: (standard chewing gum (Example 2.12), 2% flavor composition) “more intense feeling of freshness”; (sugar-free chewing gum (Example 2.11), 1% flavor composition, in particular initial phase of consumption) “more intense feeling of freshness”; (toothpaste, phosphate base (Example 2.13), 1% flavor composition, in particular at the start of brushing) “distinct feeling of freshness”. The “fullness in the mouth” value is, setting by setting: (standard chewing gum (Example 2.12), 2% flavor composition, in particular at the start of chewing) “greater fullness in the mouth”; (toothpaste 'silica opaque' (Example 2.15), 1% flavor composition, during brushing) “increased fullness in the mouth”. Also, where the note is “sugar-free chewing gum (Example 2.11), 1% cinnamon type cool flavor”, the boost effect result is recorded as “distinct “boost effect””. Besides, the “feeling in the mouth” value (toothpaste 'silica opaque' (Example 2.15), 1% flavor composition) is reported as “fresher feeling in the mouth”. Where the note is “toothpaste, phosphate base (Example 2.13), 1% spearmint type flavor”, the “effect of the flavor when brushing” value is recorded as “intensified effect of the flavor when brushing”. Also, under “toothpaste, transparent gel (Example 2.14), 1% flavor composition”, the retronasal cooling result is reported as “distinct retronasal cooling”. For the same compound, the freshness profile entry (toothpaste, transparent gel (Example 2.14), 1% flavor composition, during brushing) is on record as “clearer freshness profile”.

The values are drawn from patent US8242289B2, “Alkyl-substituted tetrahydropyrans as flavoring substances” (SYMRISE AG, priority 2009, dated 2012).
